How the values were obtained:
[1] = Rat liver microsomes (RLM) in vitro metabolism; assay type: in vitro ADME; details: Sprague-Dawley, pH 7.4; rat liver microsomes, test compound 1 μM; * = apparent NADPH independent reaction; read-out: RLM t1/2
Method: (§1) Rat Liver Microsomes (RLM). Male Sprague-Dawley rat liver microsomes were purchased from XenoTech. The reaction mixture, minus NADPH, was prepared as described in Table 10. The test compound was added into the reaction mixture at a final concentration of 1 μM. The control compound, testosterone, was run simultaneously with the test compound in a separate reaction. The reaction mixture (without cofactor) was equilibrated in a shaking water bath at 37° C. for 5 minutes. The reaction was initiated by the addition of the cofactor, and the mixture was incubated in a shaking water bath at 37° C. Aliquots (150 μL) were withdrawn at 0, 5, 10, 20, 30, 60, and for some assays at 120 minutes. Test compound and testosterone samples were immediately combined with 150 μL of ice-cold acetonitrile (ACN) containing 0.1% formic acid and internal standard to terminate the reaction. The samples were then mixed and centrifuged to precipitate proteins. All samples were assayed by LC-MS/MS using electrospray ionization. The peak area response ratio (PARR) of analyte to internal standard at each time point was compared to the PARR at time 0 to determine the percent remaining at each time point. Half-lives were calculated using GraphPad software, fitting to a single-phase exponential decay equation.
(§2) In a different series of reactions using RLM, a 10 mM stock solution of the test compound was prepared in DMSO. From this stock solution, an intermediate stock solution of 1 mM was prepared by diluting the compound in DMSO and from this intermediate stock solution, a working solution of 0.30 mM was prepared by diluting the compound in ACN:Water (50:50) as a cocktail of two compounds (i.e., 30 μL the non-deuterated and the deuterated compound in 40 μL diluent in 100 μL total volume). Following this, a master mix of rat liver microsomes (final concentration 0.5 mg/ml, Xenotech Cat #R1000; Lot #1610290) and 0.1 M potassium phosphate buffer was prepared and pre-incubated for 5 min at 37° C. The test compound mixture was then added to achieve a final test article concentration of 1 μM (for each analog if co-dosed; 0.2% DMSO); verapamil was used as a positive control. Subsequently, 10 mM NADPH prepared in 0.1 M potassium phosphate buffer was added (final concentration 1 mM) to initiate the reaction and samples were incubated at 37° C. for the desired time points (0, 5, 15, 30, 45, 60 min). At each time point, 40 μL of the samples were withdrawn and reactions were stopped using 200 μL chilled ACN containing 0.1% formic acid and internal standard carbamazepine (10 ng/mL). The samples were centrifuged, and the supernatant was analyzed by LC-MS/MS. The percent compound remaining at each time point was calculated with respect to that of the 0 min sample. The data were then analyzed to calculate half-life. Blank samples were prepared using DMSO (without the test compound).

[2] = test system: Rat Liver Microsomes; experiment: Rat liver microsomes (RLM) in vitro metabolism; assay type: in vitro ADME; details: result in words
Method: as §1, §2

[3] = target: T1, 5-HT2A (h) (Homo sapiens, UniProt P28223); experiment: 5-HT2A (h) agonist radioligand [125I](±)DOI binding; details: at 10 μM
T1 construct: expressed in transfected cells; host or cells: HEK-293 cells

[4] = target: T2, 5-HT2B (h) (Homo sapiens, UniProt P41595); experiment: 5-HT2B (h) agonist radioligand [125I](±)DOI binding; details: at 10 μM
T2 construct: expressed in transfected cells; host or cells: CHO cells
Method: (§3) Samples were then analyzed as described above.

[5] = target: T3, 5-HT2C (h) (Homo sapiens, UniProt P28335); experiment: 5-HT2C (h) agonist radioligand [125I](±)DOI binding; details: at 10 μM
T3 construct: expressed in transfected cells; host or cells: HEK-293 cells
T3 sequence (P28335 33-458): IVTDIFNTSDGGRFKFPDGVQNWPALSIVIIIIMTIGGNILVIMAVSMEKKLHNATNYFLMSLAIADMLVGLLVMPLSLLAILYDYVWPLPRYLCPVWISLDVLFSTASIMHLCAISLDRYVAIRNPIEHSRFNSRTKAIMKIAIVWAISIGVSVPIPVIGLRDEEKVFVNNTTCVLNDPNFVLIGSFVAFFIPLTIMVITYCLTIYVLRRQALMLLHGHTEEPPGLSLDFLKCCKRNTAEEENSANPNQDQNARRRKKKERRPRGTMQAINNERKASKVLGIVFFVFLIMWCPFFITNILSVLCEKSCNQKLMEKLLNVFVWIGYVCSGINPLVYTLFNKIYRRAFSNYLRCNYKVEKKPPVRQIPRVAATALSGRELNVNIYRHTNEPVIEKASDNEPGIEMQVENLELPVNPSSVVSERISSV
Method: as §3

[6] = target: T4, norepinephrine transporter (h) (Homo sapiens, UniProt P23975); experiment: norepinephrine transporter (h) binding, [3H]nisoxetine; details: at 10 μM; table calls these values “No Binding”
T4 construct: expressed in transfected cells; host or cells: CHO cells

[7] = target: T5, dopamine transporter (h) (Homo sapiens, UniProt Q01959); experiment: dopamine transporter (h) binding, [3H]BTCP; details: at 10 μM; table calls these values “No Binding”
T5 construct: expressed in transfected cells; host or cells: CHO cells
T5 sequence (Q01959 whole entry): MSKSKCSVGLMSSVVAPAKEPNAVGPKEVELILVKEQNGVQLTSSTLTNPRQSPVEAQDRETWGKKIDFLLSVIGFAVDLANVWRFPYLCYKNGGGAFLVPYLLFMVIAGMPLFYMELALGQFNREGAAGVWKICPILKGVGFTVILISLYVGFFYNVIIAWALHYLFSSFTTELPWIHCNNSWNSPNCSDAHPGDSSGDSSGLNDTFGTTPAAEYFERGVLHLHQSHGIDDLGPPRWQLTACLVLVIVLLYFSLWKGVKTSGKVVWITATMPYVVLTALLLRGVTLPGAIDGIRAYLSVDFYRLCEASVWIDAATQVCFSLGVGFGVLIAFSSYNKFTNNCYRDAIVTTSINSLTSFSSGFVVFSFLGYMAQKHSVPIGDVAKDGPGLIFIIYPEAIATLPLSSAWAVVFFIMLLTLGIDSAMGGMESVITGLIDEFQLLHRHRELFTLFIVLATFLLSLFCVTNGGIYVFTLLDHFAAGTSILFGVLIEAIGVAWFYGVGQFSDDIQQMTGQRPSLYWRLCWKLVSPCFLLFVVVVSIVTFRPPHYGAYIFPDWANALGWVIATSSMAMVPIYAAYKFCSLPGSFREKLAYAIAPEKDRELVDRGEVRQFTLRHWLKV

T2 sequence (P41595 whole entry): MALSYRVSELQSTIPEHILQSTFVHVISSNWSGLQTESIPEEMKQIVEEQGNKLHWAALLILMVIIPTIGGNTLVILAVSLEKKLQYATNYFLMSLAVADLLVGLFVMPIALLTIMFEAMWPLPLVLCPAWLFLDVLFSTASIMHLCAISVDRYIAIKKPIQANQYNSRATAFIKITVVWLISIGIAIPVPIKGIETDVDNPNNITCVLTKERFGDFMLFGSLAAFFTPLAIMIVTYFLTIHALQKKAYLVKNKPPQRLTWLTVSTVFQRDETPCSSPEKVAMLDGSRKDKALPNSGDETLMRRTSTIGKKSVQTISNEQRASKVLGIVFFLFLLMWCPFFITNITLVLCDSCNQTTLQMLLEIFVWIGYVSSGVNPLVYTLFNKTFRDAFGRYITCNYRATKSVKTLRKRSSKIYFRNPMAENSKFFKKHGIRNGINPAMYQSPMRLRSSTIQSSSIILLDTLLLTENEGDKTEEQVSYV
T1 sequence (P28223 whole entry): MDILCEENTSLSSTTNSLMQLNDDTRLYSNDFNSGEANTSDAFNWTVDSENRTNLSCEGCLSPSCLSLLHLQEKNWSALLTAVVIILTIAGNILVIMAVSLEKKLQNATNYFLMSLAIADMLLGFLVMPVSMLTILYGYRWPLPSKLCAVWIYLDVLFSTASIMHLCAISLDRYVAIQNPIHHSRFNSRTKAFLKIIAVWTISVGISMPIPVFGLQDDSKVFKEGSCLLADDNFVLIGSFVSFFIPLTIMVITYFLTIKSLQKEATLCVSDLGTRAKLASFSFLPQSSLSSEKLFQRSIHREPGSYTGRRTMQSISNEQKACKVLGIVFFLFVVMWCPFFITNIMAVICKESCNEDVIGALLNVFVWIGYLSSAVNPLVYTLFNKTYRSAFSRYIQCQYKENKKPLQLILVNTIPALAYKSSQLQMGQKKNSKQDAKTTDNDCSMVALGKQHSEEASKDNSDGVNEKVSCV
T4 sequence (P23975 whole entry): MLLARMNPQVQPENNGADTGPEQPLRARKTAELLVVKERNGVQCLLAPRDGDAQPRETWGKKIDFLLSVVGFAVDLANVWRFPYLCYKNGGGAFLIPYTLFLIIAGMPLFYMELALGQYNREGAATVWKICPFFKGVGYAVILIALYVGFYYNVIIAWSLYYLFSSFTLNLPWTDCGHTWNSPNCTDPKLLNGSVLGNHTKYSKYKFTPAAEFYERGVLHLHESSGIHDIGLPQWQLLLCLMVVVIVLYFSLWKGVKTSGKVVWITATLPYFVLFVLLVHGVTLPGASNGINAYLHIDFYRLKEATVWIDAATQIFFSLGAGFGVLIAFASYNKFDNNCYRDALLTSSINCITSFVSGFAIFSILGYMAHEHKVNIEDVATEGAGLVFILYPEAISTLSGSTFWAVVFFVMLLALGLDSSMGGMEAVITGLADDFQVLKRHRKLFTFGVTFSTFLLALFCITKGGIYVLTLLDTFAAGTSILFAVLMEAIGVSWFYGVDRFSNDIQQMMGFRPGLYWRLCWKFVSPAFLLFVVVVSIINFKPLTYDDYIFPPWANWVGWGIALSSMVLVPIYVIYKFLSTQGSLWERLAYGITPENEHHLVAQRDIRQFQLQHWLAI

CC(N)Cc1ccc2c(c1)OCS2 (stereo not drawn) [II-16, 1-(benzo[d][1,3]oxathiol-6-yl)propan-2-amine]
half-life at 1 µM [1]: 11.7 min
disappearance in RLM, NADPH dependence [2]: NADPH-independent

NCCc1ccc2c(c1)OCS2 [II-14, 2-(benzo[d][1,3]oxathiol-6-yl)ethan-1-amine]
Binding 5-HT2A (agonist radioligand), % competition [3]: 93.9% competition
Binding 5-HT2B (agonist radioligand), % competition [4]: 100.3% competition
Binding 5-HT2C (agonist radioligand), % competition [5]: 94.4% competition
Binding NET (antagonist radioligand), % competition [6]: 40.5% competition
Binding DAT (antagonist radioligand), % competition [7]: 26% competition
half-life at 1 µM [1]: < 5 min
disappearance in RLM, NADPH dependence [2]: NADPH-independent
